Structures can show the parent of a compound that is named as a salt. The source made the active and inactive calls.
What was measured:
[1] = A cytotoxicity screen of small molecule inhibitors of the PhoP region in Salmonella typhi identified in the primary screen. [Related pubchem assays: 1850, 1864, 1985 ]; format: functional
[2] = target: T1, Heat shock factor protein 1 (Mus musculus, UniProt P38532); assay: inhibition of MG132-induced HSE-luciferase signal, confirmation, cell-based, NIH3T3, luminescence, dose retest (AID 2382); format: functional;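 further: NIH3T3 fibroblasts with HSF1-driven luciferase reporter stressed by proteasome inhibitor MG132; luminescence from HSF1-driven luciferase expression after 8 hours of MG132 stress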
T1 sequence (P38532 whole entry): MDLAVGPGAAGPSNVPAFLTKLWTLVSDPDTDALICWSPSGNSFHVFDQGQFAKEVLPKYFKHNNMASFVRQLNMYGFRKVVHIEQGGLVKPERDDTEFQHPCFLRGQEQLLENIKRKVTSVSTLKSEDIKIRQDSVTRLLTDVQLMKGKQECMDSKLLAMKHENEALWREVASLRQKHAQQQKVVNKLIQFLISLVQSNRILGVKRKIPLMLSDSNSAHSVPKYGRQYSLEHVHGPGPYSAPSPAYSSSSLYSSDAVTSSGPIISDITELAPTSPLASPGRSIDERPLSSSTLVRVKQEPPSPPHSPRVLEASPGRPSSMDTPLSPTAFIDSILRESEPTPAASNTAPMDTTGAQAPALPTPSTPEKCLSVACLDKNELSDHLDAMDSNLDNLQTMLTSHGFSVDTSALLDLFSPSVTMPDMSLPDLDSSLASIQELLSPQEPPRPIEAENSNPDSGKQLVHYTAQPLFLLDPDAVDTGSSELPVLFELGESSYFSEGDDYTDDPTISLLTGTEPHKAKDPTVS

[3] = target: Cytochrome P450 2D6 (Homo sapiens, UniProt P10635);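 further: CYP2D6 member of a cytochrome P450 panel assay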
[4] = target: Cytochrome P450 3A4 (Homo sapiens, UniProt P08684);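 further: CYP3A4 tested as one member of a cytochrome P450 panel screen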
[5] = target: Cytochrome P450 2C9 (Homo sapiens, UniProt P11712)
[6] = target: T2, Carboxy-terminal domain RNA polymerase II polypeptide A small phosphatase 1 (Homo sapiens, UniProt Q9GZU7); assay: inhibitors of CTDSP1, concentration-response testing, biochemical assay, absorbance-based, actives from ultra-high-throughput screening (AID 540297); format: functional
T2 sequence (Q9GZU7 whole entry): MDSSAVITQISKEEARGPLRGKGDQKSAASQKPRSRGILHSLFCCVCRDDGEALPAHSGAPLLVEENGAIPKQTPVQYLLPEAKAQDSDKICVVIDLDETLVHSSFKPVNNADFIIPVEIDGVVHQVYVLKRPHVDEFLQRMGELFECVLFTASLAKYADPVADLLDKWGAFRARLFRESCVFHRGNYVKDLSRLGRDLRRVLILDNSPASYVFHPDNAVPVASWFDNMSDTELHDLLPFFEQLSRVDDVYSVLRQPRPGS

[7] = cytotoxicity in HEK-293T cells, dose response, cytotoxicity control for TCR NF-kB inhibitor project, luminescence, T-cell screen hits (AID 489026); format: functional, cell-based;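 further: cells exposed to compound about 14 hours before the viability readout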
[8] = microbe, parasite or virus in culture; format: functional; conditions: Mycobacterium tuberculosis
[9] = THP-1 cell cytotoxicity, dose response, cytotoxicity control for non-replicating M. tuberculosis project (AID 489025); format: functional
[10] = cells; format: functional
[11] = target: Cytochrome P450 2C19 (Homo sapiens, UniProt P33261); assay: Cytochrome panel assay with activity outcomes. Panel member name: p450-cyp2c19 Compounds with AC50 equal or less than 10 uM are considered active; format: functional
[12] = system: Streptococcus sp. 'group A'; assay: growth inhibition of control SK(-) GAS strain, dose response, counter-screen for streptokinase expression inhibitor project, luminescence, kanamycin, BacTiterGlo, confirmation (AID 1900); format: functional, organism-based
[13] = system: Streptococcus; assay: Group A Streptococcus viability loss, dose response, counter-screen for streptokinase expression inhibitor project, luminescence, BacTiterGlo (AID 1915); format: functional, organism-based;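 further: potency for reduction of bacterial viability or growth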

Sequence of Cytochrome P450 2C9 (P11712 whole entry, the tested form may be a part): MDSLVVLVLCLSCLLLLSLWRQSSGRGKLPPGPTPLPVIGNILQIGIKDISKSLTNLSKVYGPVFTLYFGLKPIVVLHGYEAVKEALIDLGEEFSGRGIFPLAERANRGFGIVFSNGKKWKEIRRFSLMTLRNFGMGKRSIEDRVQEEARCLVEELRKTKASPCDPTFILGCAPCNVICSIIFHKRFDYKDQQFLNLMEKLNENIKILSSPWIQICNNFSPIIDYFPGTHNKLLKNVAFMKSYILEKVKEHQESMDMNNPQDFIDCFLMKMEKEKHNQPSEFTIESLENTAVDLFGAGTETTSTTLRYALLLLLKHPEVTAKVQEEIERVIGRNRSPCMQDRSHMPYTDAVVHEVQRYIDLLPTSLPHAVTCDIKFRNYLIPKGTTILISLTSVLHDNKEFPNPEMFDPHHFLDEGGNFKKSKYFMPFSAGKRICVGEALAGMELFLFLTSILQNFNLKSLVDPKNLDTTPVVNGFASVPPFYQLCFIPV
Sequence of Cytochrome P450 2D6 (P10635 whole entry): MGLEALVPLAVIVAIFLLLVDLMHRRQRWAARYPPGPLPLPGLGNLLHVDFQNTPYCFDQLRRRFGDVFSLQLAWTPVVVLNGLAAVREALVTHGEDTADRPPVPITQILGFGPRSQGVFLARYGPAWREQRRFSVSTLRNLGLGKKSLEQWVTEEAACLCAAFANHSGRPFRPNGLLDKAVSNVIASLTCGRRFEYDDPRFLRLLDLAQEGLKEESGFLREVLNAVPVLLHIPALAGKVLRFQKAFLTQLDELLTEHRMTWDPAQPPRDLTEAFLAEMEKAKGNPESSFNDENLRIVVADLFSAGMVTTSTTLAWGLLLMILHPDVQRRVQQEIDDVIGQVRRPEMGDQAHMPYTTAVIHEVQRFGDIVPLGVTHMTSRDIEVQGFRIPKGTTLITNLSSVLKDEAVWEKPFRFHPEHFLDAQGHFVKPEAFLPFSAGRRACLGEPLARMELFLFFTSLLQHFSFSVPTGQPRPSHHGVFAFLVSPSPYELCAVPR
Sequence of Cytochrome P450 2C19 (P33261 whole entry): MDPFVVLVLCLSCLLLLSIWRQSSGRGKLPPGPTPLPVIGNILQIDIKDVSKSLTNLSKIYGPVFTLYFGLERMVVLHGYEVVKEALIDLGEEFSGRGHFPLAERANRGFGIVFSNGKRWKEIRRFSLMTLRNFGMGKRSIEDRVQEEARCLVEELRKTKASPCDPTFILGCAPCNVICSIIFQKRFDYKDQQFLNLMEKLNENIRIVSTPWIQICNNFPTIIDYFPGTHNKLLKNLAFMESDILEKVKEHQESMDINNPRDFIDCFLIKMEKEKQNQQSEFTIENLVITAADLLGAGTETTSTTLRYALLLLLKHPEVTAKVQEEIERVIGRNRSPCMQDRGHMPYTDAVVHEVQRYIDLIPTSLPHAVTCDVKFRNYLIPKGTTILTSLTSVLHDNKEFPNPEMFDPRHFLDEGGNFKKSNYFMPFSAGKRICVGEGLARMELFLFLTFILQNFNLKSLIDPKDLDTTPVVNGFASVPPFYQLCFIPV
Sequence of Cytochrome P450 3A4 (P08684 whole entry): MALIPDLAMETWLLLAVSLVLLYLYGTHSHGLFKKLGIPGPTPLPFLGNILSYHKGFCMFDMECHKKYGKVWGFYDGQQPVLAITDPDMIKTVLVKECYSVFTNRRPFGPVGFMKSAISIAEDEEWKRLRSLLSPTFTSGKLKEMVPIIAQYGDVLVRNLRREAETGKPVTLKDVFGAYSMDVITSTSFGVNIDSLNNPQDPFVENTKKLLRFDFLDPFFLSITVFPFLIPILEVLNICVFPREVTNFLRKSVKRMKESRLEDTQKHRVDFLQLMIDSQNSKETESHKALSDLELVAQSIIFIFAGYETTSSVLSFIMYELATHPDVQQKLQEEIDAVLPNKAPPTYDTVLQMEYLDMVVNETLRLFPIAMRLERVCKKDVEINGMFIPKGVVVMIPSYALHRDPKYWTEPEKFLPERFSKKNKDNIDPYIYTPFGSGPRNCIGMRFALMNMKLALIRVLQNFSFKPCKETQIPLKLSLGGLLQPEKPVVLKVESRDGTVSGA

SMILES: Fc1ccc(NC(S)=NCc2ccccc2Cl)cc1
- EC50 [1]: > 50 µM (active)

SMILES: c1ccc(-c2nc3ccccc3[nH]2)cc1
- EC50 [1]: > 50 µM (active)
- EC50 [2]: > 195 µM (not active)

SMILES: Cc1ccc(SCc2ccc(C(=O)Nc3cc([N+](=O)[O-])ccc3C)cc2)cc1
- AC50 [3]: 3.16 µM (inconclusive)
- AC50 [4]: 8.91 µM (inconclusive)
- AC50 [5]: inconclusive

SMILES: Cn1cnc(C(=O)N2CCc3ccccc3C2)c1C(=O)N1CCc2ccccc2C1
- IC50 [6]: 4.36 µM (active)

SMILES: COc1ccccc1N1CCN(C(=O)c2ccc(-c3ccc(Cl)cc3)o2)CC1
- IC50 [7]: 72.7 µM (inactive)

SMILES: N#Cc1ccccc1S(=O)(=O)N1CCN(C(=O)c2cc3c(s2)CCC3)CC1
- IC50 [6]: 5.88 µM (active)

SMILES: Cc1nnc(SCC(=O)Nc2nsc(-c3ccc(Cl)cc3)n2)s1
- IC50 [6]: 15.2 µM (active)

SMILES: COc1ccc(OC)c(NC(=O)CSc2sc3c(O)cc(=O)[nH]c3c2C#N)c1
- IC50 [6]: 5.22 µM (active)

SMILES: Cc1ccc(S(=O)(=O)/N=C(\CCl)N2CCOCC2)cc1
- CC50 [8]: > 40 µM (active)
- CC50 [9]: 30.1 µM (active)
- IC50 [10]: 10.8 µM (active)

SMILES: Cn1nc(C(F)(F)F)c(/C=N/OC(=O)c2ccc(Cl)cc2)c1Cl
- AC50 [11]: 10 µM (inconclusive)
- AC50 [5]: inconclusive

SMILES: O=C1C2C3C=CC(CC3)C2C(=O)N1/N=C/c1ccc(O)cc1 (stereo not given)
- EC50 [1]: > 50 µM (active)

SMILES: NC1CCN(c2nc3c(cc2F)c(=O)c(C(=O)O)cn3-c2ccc(F)cc2F)C1 (stereo not given) [TOSUFLOXACIN TOSYLATE]
- EC50 [1]: > 50 µM (active)
- EC50 [12]: 276 nM (active)
- EC50 [13]: 999 nM (active)

Source: ChEMBL document CHEMBL1201862, “PubChem BioAssay data set” (2004)
